Measured values: PubChem BioAssay AID256 (DTP/NCI, 2004)
Values joined by “and” are separate entries in the source; they are usually repeats but may differ in a detail not shown here. Equal entries are not always repeated. Toxic doses and inconclusive results are not listed. The calls were made as follows: active = survival T/C of 150% or more; inactive = T/C below 125% in these data.

Tested on: CD2F1 mice, L1210 leukemia ip, survival T/C
Test: NCI In Vivo Anticancer Drug Screen. Data for tumor model L1210 Leukemia (intraperitoneal) in CD2F1 (CDF1) mice
Details: higher = longer survival
Outline: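 Mice carrying a transplanted tumor received test compound or vehicle alone. The value is the measurement in the treated group divided by that in the vehicle-treated control group.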

[1] = endpoint: mean survival time, dose: 100.0 mg/kg/injection, schedule: Q04DX003 (ip), vehicle: saline with Tween-80
[2] = endpoint: mean survival time, dose: 400.0 mg/kg/injection, schedule: Q04DX003 (ip), vehicle: saline with Tween-80

Measured: T/C

Nc1nc2c(ncn2-c2ccc(OCCCNC(=O)c3cccc(S(=O)(=O)F)c3)cc2)c(=O)[nH]1
inactive: endpoint: mean survival time, dose: 75.0 mg/kg/injection, schedule: Q01DX001 (ip), vehicle: saline with Tween-80 92 % of control | endpoint: mean survival time, dose: 150.0 mg/kg/injection, schedule: Q01DX001 (ip), vehicle: saline with Tween-80 103 % of control | endpoint: mean survival time, dose: 300.0 mg/kg/injection, schedule: Q01DX001 (ip), vehicle: saline with Tween-80 101 % of control

CCC1C(=O)OCc2c1cc1n(c2=O)C(CC)c2c-1nc1ccccc1c2Cl (centres undefined)
inactive: endpoint: mean survival time, dose: 100.0 mg/kg/injection, schedule: Q04DX003 (ip), vehicle: saline 98 % of control | endpoint: mean survival time, dose: 200.0 mg/kg/injection, schedule: Q04DX003 (ip), vehicle: saline 95 % of control | endpoint: mean survival time, dose: 400.0 mg/kg/injection, schedule: Q04DX003 (ip), vehicle: saline 90 % of control

CC1(C)OC2C(COC(=O)Oc3ccccc3)OC(n3cnc4c(=O)[nH]c(N)nc43)C2O1 (centres undefined)
inactive: endpoint: mean survival time, dose: 100.0 mg/kg/injection, schedule: Q01DX001 (ip), vehicle: Klucel (hydroxypropylcellulose) (HPC) 92 % of control | endpoint: mean survival time, dose: 200.0 mg/kg/injection, schedule: Q01DX001 (ip), vehicle: Klucel (hydroxypropylcellulose) (HPC) 93 % of control | endpoint: mean survival time, dose: 400.0 mg/kg/injection, schedule: Q01DX001 (ip), vehicle: Klucel (hydroxypropylcellulose) (HPC) 92 % of control

CSc1ccc(N=C/C=C/c2ccccc2)cc1
inactive: [1] 93 % of control | [2] 91 % of control

CCOC(=O)CCC[P+](c1ccccc1)(c1ccccc1)c1ccccc1
inactive: [1] 100 % of control | endpoint: mean survival time, dose: 200.0 mg/kg/injection, schedule: Q04DX003 (ip), vehicle: saline with Tween-80 100 % of control | [2] 98 % of control

Cc1cc(=O)oc2cc(O)ccc12
inactive: endpoint: mean survival time, dose: 100.0 mg/kg/injection, schedule: Q01DX001 (ip), vehicle: saline with Tween-80 94 % of control | endpoint: mean survival time, dose: 200.0 mg/kg/injection, schedule: Q01DX001 (ip), vehicle: saline with Tween-80 98 % of control | endpoint: mean survival time, dose: 400.0 mg/kg/injection, schedule: Q01DX001 (ip), vehicle: saline with Tween-80 87 % of control

COc1cc([N+](=O)[O-])ccc1NC(=O)NCc1ccccc1
inactive: endpoint: mean survival time, dose: 50.0 mg/kg/injection, schedule: Q04DX002 (ip), vehicle: saline with Tween-80 89 % of control and 94 % of control | endpoint: mean survival time, dose: 100.0 mg/kg/injection, schedule: Q01DX009 (ip), vehicle: saline with Tween-80 100 % of control | endpoint: mean survival time, dose: 100.0 mg/kg/injection, schedule: Q04DX002 (ip), vehicle: saline with Tween-80 88 % of control and 96 % of control and 97 % of control | endpoint: mean survival time, dose: 200.0 mg/kg/injection, schedule: Q01DX009 (ip), vehicle: saline with Tween-80 95 % of control | endpoint: mean survival time, dose: 200.0 mg/kg/injection, schedule: Q04DX002 (ip), vehicle: saline with Tween-80 93 % of control and 105 % of control | endpoint: mean survival time, dose: 400.0 mg/kg/injection, schedule: Q01DX009 (ip), vehicle: saline with Tween-80 103 % of control | endpoint: mean survival time, dose: 400.0 mg/kg/injection, schedule: Q04DX002 (ip), vehicle: saline with Tween-80 93 % of control

C/C=C(\C(=C\C)c1ccc(OC(=O)c2ccccc2)c(C2CCCCC2)c1)c1ccc(O)c(C2CCCCC2)c1
inactive: endpoint: mean survival time, dose: 75.0 mg/kg/injection, schedule: Q01DX001 (ip), vehicle: saline 95 % of control | endpoint: mean survival time, dose: 150.0 mg/kg/injection, schedule: Q01DX001 (ip), vehicle: saline 95 % of control | endpoint: mean survival time, dose: 300.0 mg/kg/injection, schedule: Q01DX001 (ip), vehicle: saline 103 % of control

BrC1(Br)C2CC/C=C/CCCCC21 (centres undefined)
inactive: endpoint: mean survival time, dose: 100.0 mg/kg/injection, schedule: Q04DX003 (ip), vehicle: saline sonified 97 % of control | endpoint: mean survival time, dose: 200.0 mg/kg/injection, schedule: Q04DX003 (ip), vehicle: saline sonified 94 % of control | endpoint: mean survival time, dose: 400.0 mg/kg/injection, schedule: Q04DX003 (ip), vehicle: saline sonified 97 % of control

O=[N+]([O-])c1ccc(S/C=C/c2ccccc2)cc1
inactive: endpoint: median survival time, dose: 25.0 mg/kg/injection, schedule: Q04DX002 (ip), vehicle: saline with Tween-80 100 % of control | endpoint: median survival time, dose: 50.0 mg/kg/injection, schedule: Q04DX002 (ip), vehicle: saline with Tween-80 110 % of control | endpoint: median survival time, dose: 100.0 mg/kg/injection, schedule: Q04DX002 (ip), vehicle: saline with Tween-80 100 % of control | endpoint: median survival time, dose: 200.0 mg/kg/injection, schedule: Q04DX002 (ip), vehicle: saline with Tween-80 100 % of control
